Measured values reported in patent US8633315B2, “Substituted hydroxyethyl amine compounds as beta-secretase modulators and methods of use” (Amgen Inc., priority 2007, dated 2014).

What was measured:
[1] = target: BACE1 (Homo sapiens, UniProt P56817); test: In vitro enzymatic BACE FRET (fluorescence resonance energy transfer) assay; type: biochemical
Outline: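 Cleavage of a quenched peptide FRET substrate (50 nM) in 0.05 M acetate pH 4.2, 10% DMSO, 100 uM genapol, 1 h incubation. Reaction stopped by Tris neutralization; fluorescence read at excitation 488 nm / […].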

[2] = system: Cells stably expressing Amyloid Precursor Protein (APP); test: In vitro BACE cell-based assay (HEK cell assay): Aβ40 in conditioned medium by sandwich ELISA; conditions: Homo sapiens, HEK293, 24 h, Aβ40 in conditioned medium after 24 h incubation
Outline: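 APP-stably-expressing cells were grown 24 h in DMEM/10% FBS, then treated for 24 h with 10-point doses starting at 100 μM or 10 μM, at 0.1% DMSO final. Aβ40 in conditioned medium was measured by sandwich ELISA (pAb40 capture, biotinylated 6E10 detection, europium time-resolved fluorescence); IC50 from percent inhibition.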

BACE1, sequence (P56817 46-501, species assumed): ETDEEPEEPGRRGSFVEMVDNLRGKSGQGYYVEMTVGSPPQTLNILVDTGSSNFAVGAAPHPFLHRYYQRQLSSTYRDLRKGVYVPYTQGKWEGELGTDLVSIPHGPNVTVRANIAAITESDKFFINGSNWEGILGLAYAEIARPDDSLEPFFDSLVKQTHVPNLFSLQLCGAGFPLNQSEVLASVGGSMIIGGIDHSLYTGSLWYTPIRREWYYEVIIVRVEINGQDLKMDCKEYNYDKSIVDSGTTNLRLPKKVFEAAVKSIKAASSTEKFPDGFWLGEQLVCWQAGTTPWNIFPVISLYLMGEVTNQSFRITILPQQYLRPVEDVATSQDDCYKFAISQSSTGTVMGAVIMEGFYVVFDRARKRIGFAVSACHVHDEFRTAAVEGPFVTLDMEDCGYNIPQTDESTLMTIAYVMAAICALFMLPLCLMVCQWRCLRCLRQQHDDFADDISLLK

| Compound | IC50 [1] [nM] | IC50 [2] [nM] |
| --- | --- | --- |
| C=CC[C@H](NC(=O)c1ccc(F)c(F)c1)[C@H](O)CN[C@H]1CC2(CCC2)Oc2ncc(CC(C)(C)C)cc21 [Example 60, N-((1S)-1-((1R)-2-(((4′S)-6′-(2,2-dimethylpropyl)-3′,4′-dihydrospiro[cyclobutane-1,2′-pyrano[2,3-b]pyridin]-4′-yl)amino)-1-hydroxyethyl)-3-buten-1-yl)-3,4-difluorobenzamide] | 87 | 361 |
| C=CC[C@H](NC(=O)c1cscn1)[C@H](O)CN[C@H]1CC2(CCC2)Oc2ncc(CC(C)(C)C)cc21 [Example 134, N-((1S)-1-((1R)-2-(((4′S)-6′-(2,2-dimethylpropyl)-3′,4′-dihydrospiro[cyclobutane-1,2′-pyrano[2,3-b]pyridin]-4′-yl)amino)-1-hydroxyethyl)-3-buten-1-yl)-1,3-thiazole-4-carboxamide] | 130 | 664 |
| C=CC[C@H](NC(=O)COC)[C@H](O)CN[C@H]1CC2(CCC2)Oc2nc(F)c(CC(C)C)cc21 [Example 126, N-((1S)-1-((1R)-2-(((4′S)-7′-fluoro-6′-(2-methylpropyl)-3′,4′-dihydrospiro[cyclobutane-1,2′-pyrano[2,3-b]pyridin]-4′-yl)amino)-1-hydroxyethyl)-3-buten-1-yl)-2-(methyloxy)acetamide] | 316 | 211 |
| C=CCC(NC(=O)C1CCC(=O)O1)C(O)CNC1CC2(CCC2)Oc2cnc(C(F)(F)F)cc21 [Example 119, (S)-N-((2R,3S)-1-((S)-2,2-spirocyclobutyl-6-(trifluoromethyl)-3,4-dihydro-2H-pyrano[2,3-c]pyridin-4-ylamino)-2-hydroxyhex-5-en-3-yl)-5-oxo-tetrahydrofuran-2-carboxamide] | 9300 | ≥ 10000 |
| C=CCC(NC(=O)C1CN(C(=O)N2CCCCC2)CCO1)C(O)CNC1CC2(CCC2)Oc2ncc(CC(C)(C)C)cc21 (stereo not drawn) [Example 152] | 12 | 4 |

Other lines, results leading:

| IC50 [1] [nM] | IC50 [2] [nM] | Compound |
| --- | --- | --- |
| 4160 | ≥ 10000 | C=CC[C@H](NC(C)=O)[C@H](O)CN[C@H]1C[C@@]2(CC[C@H]2O)Oc2ncc(CC(C)(C)C)cc21 [Example 50, N-((1S)-1-((1R)-2-(((1R,2R,4′S)-6′-(2,2-dimethylpropyl)-2-hydroxy-3′,4′-dihydrospiro[cyclobutane-1,2′-pyrano[2,3-b]pyridin]-4′-yl)amino)-1-hydroxyethyl)-3-buten-1-yl)acetamide] |
| 951 | 483 | C=CC[C@H](NC(=O)C(C)(C)F)[C@H](O)CN[C@H]1CC2(CCC2)Oc2ncc(CC(C)(C)C)cc21 [Example 141, N-((1S)-1-((1R)-2-(((4′S)-6′-(2,2-dimethylpropyl)-3′,4′-dihydrospiro[cyclobutane-1,2′-pyrano[2,3-b]pyridin]-4′-yl)amino)-1-hydroxyethyl)-3-buten-1-yl)-2-fluoro-2-methylpropanamide] |
| 302 | 418 | C=CC[C@H](NC(=O)c1ccn(C)n1)[C@H](O)CN[C@H]1CC2(CCC2)Oc2ncc(CC(C)(C)C)cc21 [Example 132, N-((1S)-1-((1R)-2-(((4′S)-6′-(2,2-dimethylpropyl)-3′,4′-dihydrospiro[cyclobutane-1,2′-pyrano[2,3-b]pyridin]-4′-yl)amino)-1-hydroxyethyl)-3-buten-1-yl)-1-methyl-1H-pyrazole-3-carboxamide] |
| 37 | 342 | C=CC[C@H](NC(=O)C(C)(F)F)[C@H](O)CN[C@H]1CC2(CCC2)Oc2ncc(CC(C)(C)C)cc21 [Example 136, N-((1S)-1-((1R)-2-(((4′S)-6′-(2,2-dimethylpropyl)-3′,4′-dihydrospiro[cyclobutane-1,2′-pyrano[2,3-b]pyridin]-4′-yl)amino)-1-hydroxyethyl)-3-buten-1-yl)-2,2-difluoropropanamide] |
